Test results from PMC9849758, “Chemically diverse activity-based probes with unexpected inhibitory mechanisms targeting trypsin-like serine proteases” (Frontiers in Chemistry, 2023).
Structures can show the parent of a compound that is named as a salt. Where two headings read alike, the source gives them in different places.

Tests used:
Assay in all cases: IC50 determination, spectrophotometric protease assay
Format in all cases: biochemical
[1] = biological target: T1, Trypsin-3 (recombinant trypsin-3) (Homo sapiens, UniProt P35030); conditions: for Trypsin-3 IC50: alkyne probes
T1 construct: purchased R&D
T1 sequence (P35030 1-304): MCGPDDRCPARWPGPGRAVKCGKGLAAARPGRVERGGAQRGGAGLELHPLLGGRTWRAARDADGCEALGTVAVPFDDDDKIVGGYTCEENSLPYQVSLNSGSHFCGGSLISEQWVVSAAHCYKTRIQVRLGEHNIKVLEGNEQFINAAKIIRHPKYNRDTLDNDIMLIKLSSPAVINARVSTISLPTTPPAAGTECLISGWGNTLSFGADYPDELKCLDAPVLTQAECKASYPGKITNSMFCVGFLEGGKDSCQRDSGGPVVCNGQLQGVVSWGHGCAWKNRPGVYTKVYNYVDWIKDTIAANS
Procedure: (§1) The IC50 values were determined using a spectrophotometric assay. All the experiments were conducted in duplicate. The readout consisted of evaluating the protease-mediated release of the chromophore para-nitroaniline (pNA) or fluorophore 7-amino-4-methyl coumarin (AMC) moieties from the respective substrates. Enzymatic activity was measured for 30 min at 37°C. All compounds were initially screened at three concentrations (10, 1, and .1 μM) to estimate the range of the IC50 value. Those which were able to reduce protease activity by at least 50% at a concentration of 10 μM were submitted to an exact IC50 determination. […] A third independent experiment was performed when the standard deviation of the two independent experiments was higher than […]. IC50 values were obtained by fitting the data with the four-parameter logistics equation using GraphPad Prism 9.
(§2) The conditions for each protease are described as follows, the concentration of substrate used was at the corresponding Km.

[2] = biological target: T2, Thrombin (recombinant thrombin) (Homo sapiens, UniProt P00734)
T2 construct: purchased R&D
Procedure: as §1, §2

[3] = biological target: T3, TLCK-treated pancreatic bovine chymotrypsin (Bos taurus, UniProt P00766); conditions: for ChTryp IC50: alkyne probes
T3 construct: TLCK-treated pancreatic bovine chymotrypsin (Sigma-Aldrich); purchased Sigma-Aldrich; host or cells: bovine pancreas
Procedure: as §1, §2

[4] = biological target: T4, uPA (recombinant urokinase plasminogen activator) (Homo sapiens, UniProt P00749)
T4 construct: purchased HYPHEN BioMed
Procedure: as §1, §2

[5] = biological target: T5, β-tryptase (recombinant tryptase β-2) (Homo sapiens, UniProt P20231)
T5 construct: purchased EnzoLife Sciences
Procedure: as §1, §2

[6] = biological target: T6, Cathepsin G (cathepsin G human neutrophil) (Homo sapiens, UniProt P08311); conditions: for CatG IC50: alkyne probes
T6 construct: Cathepsin G (cathepsin G human neutrophil, Sigma-Aldrich); purchased Sigma-Aldrich; host or cells: human neutrophil
T6 sequence (P08311 21-255): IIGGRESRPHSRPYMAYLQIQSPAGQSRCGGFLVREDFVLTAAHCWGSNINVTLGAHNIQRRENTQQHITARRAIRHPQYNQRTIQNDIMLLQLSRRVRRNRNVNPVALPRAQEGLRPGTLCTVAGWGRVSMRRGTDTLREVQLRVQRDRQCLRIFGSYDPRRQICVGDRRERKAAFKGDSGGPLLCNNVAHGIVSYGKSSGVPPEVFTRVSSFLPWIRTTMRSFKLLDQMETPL
Procedure: as §1, §2

[7] = biological target: T7, Neutrophil Elastase (recombinant neutrophil elastase) (Homo sapiens, UniProt P08246); conditions: for NE IC50: alkyne probes
T7 construct: purchased Enzo LifeSciences
T7 sequence (P08246 30-267): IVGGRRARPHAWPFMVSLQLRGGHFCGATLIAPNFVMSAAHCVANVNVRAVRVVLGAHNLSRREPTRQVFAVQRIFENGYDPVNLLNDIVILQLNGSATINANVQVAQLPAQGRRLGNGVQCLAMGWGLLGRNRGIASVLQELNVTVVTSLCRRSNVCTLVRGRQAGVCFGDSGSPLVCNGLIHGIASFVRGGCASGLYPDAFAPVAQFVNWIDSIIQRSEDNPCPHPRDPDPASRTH
Procedure: as §1, §2

[8] = read-out: Trypsin-3 IC50, desthiobiotin probes, 15 min preincubation at 37°C, mean ± SD
[9] = read-out: Thrombin IC50, desthiobiotin probes, 15 min preincubation at 37°C, mean ± SD
[10] = read-out: ChTryp IC50, desthiobiotin probes, 15 min preincubation at 37°C, mean ± SD
[11] = read-out: uPA IC50, desthiobiotin probes, 15 min preincubation at 37°C, mean ± SD
[12] = read-out: β-tryptase IC50, desthiobiotin probes, 15 min preincubation at 37°C, mean ± SD
[13] = read-out: CatG IC50, desthiobiotin probes, 15 min preincubation at 37°C, mean ± SD
[14] = read-out: NE IC50, desthiobiotin probes, 15 min preincubation at 37°C, mean ± SD
[15] = 15 min preincubation at 37°C, mean ± SD
[16] = alkyne probes, 15 min preincubation at 37°C, mean ± SD

T5 sequence (P20231 31-275): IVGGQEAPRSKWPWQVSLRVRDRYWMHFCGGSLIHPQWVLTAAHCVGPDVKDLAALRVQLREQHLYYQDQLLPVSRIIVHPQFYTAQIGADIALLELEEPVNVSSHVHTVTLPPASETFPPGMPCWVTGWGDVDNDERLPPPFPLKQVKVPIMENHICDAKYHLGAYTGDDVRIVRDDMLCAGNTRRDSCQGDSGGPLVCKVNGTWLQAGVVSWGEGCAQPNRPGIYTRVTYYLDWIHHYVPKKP

SMILES | IC50 [1] [µM] | IC50 [2] [µM] | IC50 [3] [µM] | IC50 [4] [µM] | IC50 [5] [µM] | IC50 [6] [µM] | IC50 [7] [µM] | also measured
CC(=O)Nc1ccc(OP(=O)(Oc2ccc(NC(C)=O)cc2)C(CCCCN)NC(=O)OCCCc2cn(CCOCCOCCOCCNC(=O)CCCCC[C@H]3NC(=O)N[C@H]3C)nn2)cc1 (stereo partly drawn) [49b, 3-(1-(18-((4R,5S)-5-methyl-2-oxoimidazolidin-4-yl)-13-oxo-3,6,9-trioxa-12-azaoctadecyl)-1H-1,2,3-triazol-4-yl)propyl (5-amino-1-(bis(4-acetamidophenoxy)phosphoryl)pentyl)carbamate trifluoroacetate salt] | – | – | – | – | – | – | – | IC50 [1, 8]: 0.09 ± 0.005 µM; IC50 [2, 9]: 1.18 ± 0.04 µM; IC50 [3, 10]: > 10 µM; IC50 [4, 11]: 6.75 ± 0.52 µM; IC50 [5, 12]: 1.11 ± 0.05 µM; IC50 [6, 13]: 4.47 ± 0.51 µM; IC50 [7, 14]: > 10 µM
C#CCCCOC(=O)NC(CCCN)P(=O)(Oc1ccccc1)Oc1ccccc1.O=C(O)C(F)(F)F (centres unmarked) [14b] | > 10 | > 10 | > 10 | > 10 | > 10 | > 10 | > 10 | Trypsin-3 IC50 [1, 15]: inactive; Thrombin IC50 [2, 16]: inactive; ChTryp IC50 [3, 15]: inactive; uPA IC50 [4, 16]: inactive; β-tryptase IC50 [5, 16]: inactive; CatG IC50 [6, 15]: inactive; NE IC50 [7, 15]: inactive
C#CCCCOC(=O)NC(CCCCN)P(=O)(Oc1ccc(NC(=O)OC)cc1)Oc1ccc(NC(=O)OC)cc1 (centres unmarked) [30b] | 0.006 ± 0.0006 | 1.18 ± 0.07 | > 10 | 2.44 ± 0.35 | 0.68 ± 0.05 | 0.56 ± 0.002 | > 10 | Trypsin-3 IC50 [1, 15]: nanomolar inhibition
C#CCCCOC(=O)NC(c1ccc(N)cc1)P(=O)(Oc1ccc(NC(C)=O)cc1)Oc1ccc(NC(C)=O)cc1 (centres unmarked) [20b] | – | – | – | > 10 | > 10 | > 10 | – | –
C#CCCCOC(=O)NC(Cc1ccc(CN)cc1)P(=O)(Oc1ccccc1)Oc1ccccc1 (centres unmarked) [22b] | 3.82 ± 0.19 | > 10 | > 10 | 2.3 ± 0.1 | > 10 | 5.26 ± 0.68 | > 10 | –
C#CCCCOC(=O)NC(c1ccc(N)cc1)P(=O)(Oc1ccccc1)Oc1ccccc1 (centres unmarked) [19b] | 9.06 ± 1.1 | 6.59 ± 3.9 | 8.52 ± 1.81 | > 10 | > 10 | > 10 | > 10 | –
C[C@@H]1NC(=O)N[C@@H]1CCCCCC(=O)NCCOCCOCCOCCn1cc(CCCOC(=O)NC(CCCCN)P(=O)(Oc2ccccc2)Oc2ccccc2)nn1 (some centres unmarked) [47b] | – | – | – | – | – | – | – | IC50 [1, 8]: 0.52 ± 0.24 µM; IC50 [2, 9]: 3.55 ± 0.17 µM; IC50 [3, 10]: > 10 µM; IC50 [4, 11]: 4.62 ± 0.17 µM; IC50 [5, 12]: 2.49 ± 0.19 µM; IC50 [6, 13]: > 10 µM; IC50 [7, 14]: > 10 µM
C#CCCCOC(=O)NC(C(C)C)P(=O)(Oc1ccccc1)Oc1ccccc1 (centres unmarked) [compound 13] | > 10 | > 10 | > 10 | > 10 | > 10 | > 10 | > 10 | NE IC50 [7, 15]: not potent
C#CCCCOC(=O)NC(Cc1ccc(N)cc1)P(=O)(Oc1ccc(Cl)cc1)Oc1ccc(Cl)cc1 (centres unmarked) [18b] | 1.72 ± 0.19 | 7.88 ± 0.61 | 0.19 ± 0.14 | 6.38 ± 0.52 | > 10 | 0.36 ± 0.01 | > 10 | ChTryp IC50 [3, 15]: submicromolar; CatG IC50 [6, 15]: submicromolar
C#CCCCOC(=O)NC(Cc1ccc(N)cc1)P(=O)(Oc1ccccc1)Oc1ccccc1 (centres unmarked) [16b] | 6.85 ± 0.8 | > 10 | 2.67 ± 0.57 | > 10 | > 10 | 3.74 ± 0.27 | > 10 | –
